Assay results from patent publication US12646341B2, “Image processing method and image processing program” (TOPPAN Inc., priority 2020, dated 2026).

System: vascular network structure of 3D hepatic model (PXB cells, SEC, Lx2)
From the text: The vascular network structure of the cell structure becomes visible by subjecting the 3D hepatic model to immunostaining, fluorescent modification, or a combination of immunostaining and fluorescent modification.
The preparation process may include, for example, a first collection process of collecting cells other than fresh human hepatocytes isolated from chimeric mice with human hepatocytes (PXB cell) shown in Table 1, a second collection process of collecting PXB cells, a mixture obtaining process of obtaining a cell mixture, a suspension obtaining process of obtaining a cell suspension, a gel formation process of forming a fibrin gel, and a model obtaining process of obtaining a 3D model.
In the mixture obtaining process, for example, the cells collected in the first collection process and the second collection process are mixed so that a total quantity of cells per well becomes 30,000 cells at the cell ratios of PXB cells, SEC and Lx2 in the tissue of 65%, 25% and 10%, respectively, to obtain a cell mixture (an example of cell structure). The cell mixture contains multiple types of cells including vascular endothelial cells and other stromal cells.
In the suspension obtaining process, first, for example, a heparin-collagen solution is prepared by mixing equal amounts of a 1.0 mg/ml heparin solution (buffer: 100 mM Tris-HCL) and a 0.3 mg/ml collagen solution (buffer: 5 mM acetate). Then, 100 μL of the heparin-collagen solution prepared as described above is added to each cell mixture obtained in the mixture obtaining process, and the mixture is suspended until the cells are no longer visually observable and then centrifuged (400 g×2 min) to obtain a viscous solution. After the supernatant is removed from the viscous solution, a solvent is added to the viscous solution so that the final volume of the viscous solution becomes the solution amount of [the number of wells to be seeded]×2 μL. Thus, a cell suspension is obtained. […]

Compound: O=P1(N(CCCl)CCCl)NCCCO1 (stereo not drawn) [cyclophosphamide]
- length of the vascular network structure in the captured images (FIGS. 9A-9F, dosage concentration 0 M, 143 M, 430 M, 1430 μM, 4300 μM and 14300 M): the higher the dosage concentration of cyclophosphamide, the smaller the length of the vascular network structure
- skeleton length in the extracted images (FIGS. 9G-9L, dosage concentration 0 M, 143 M, 430 M, 1430 μM, 4300 μM and 14300 M): the higher the dosage concentration of cyclophosphamide, the smaller the skeleton length
- shape of the vascular network structure (skeleton length and number of branch points in the extracted images) (FIGS. 10A and 10B, against dosage concentration): the shape of the vascular network structure significantly changes and the vascular network structure decreases when the dosage concentration of cyclophosphamide exceeds a certain level
